{
  "source": "patent US20100009348A1",
  "about": "“Methods and Constructs for Analyzing Biological Activities of Biological Specimens and Determining States of Organism” (ATTAGENE, INC., priority 2005, published 2010)",
  "assay": "STZ-induced type I diabetes in rats, blood glucose concentration",
  "assay_type": "in vivo, rat",
  "conditions": "Sprague-Dawley male rats, single intra-peritoneal injection of 70 mg/kg STZ, seven days following the injection, tail vein blood",
  "text": "Experimental type I diabetes mellitus was induced in rats by using Streptozotocin (STZ), a N-nitroso derivative of D-glucosamine. Streptozotocin causes rapid necrosis in pancreatic β-cells of islets of Langerhans (Okamoto, 1985, Bioessays 2:15-21). STZ has been widely used to provoke insulin-dependent diabetes conditions in various laboratory animals, and animals treated with STZ are recognized in the art as a model of diabetes mellitus (Like and Rossini, 1976, Science 193:415-417).\nThe design of the approach to compare sera from diabetic and healthy rats is illustrated in FIG. 4. Sprague-Dawley male rats aged 10-12 weeks were randomly allocated in two groups. Rats from one group received a single intra-peritonial injection of 70 mg/kg STZ (Sigma-Aldrich, St. Louis, Mo., USA) dissolved in freshly prepared 50 mM citrate buffer (pH, 4.0). Animals in control group received an equivalent volume of the citrate buffer. Seven days following the injection, blood samples were derived from a tail vein of the control and STZ treated animals. Development of the diabetic conditions in STZ treated animals was confirmed by blood glucose concentration measurements.",
  "data": [
    {"smiles": "CN(N=O)C(=O)N[C@H]1C(O)O[C@H](CO)[C@@H](O)[C@@H]1O", "note": "(mixture of isomers) [STZ, Streptozotocin]", "values": [
      {"measurement": "blood glucose levels (hyperglycemia)", "result": "at least 300 mg/dl"}
    ]}
  ]
}
